Consider two molecules from ChEMBL document CHEMBL4033700, “From a novel HTS hit to potent, selective, and orally bioavailable KDM5 inhibitors” (Bioorg Med Chem Lett, 2017).

In brackets after ≈: the same amount, converted by molar mass.

The target in series [1] is T1, Lysine-specific demethylase 5A (Homo sapiens, UniProt P29375). The series can be described thus: Inhibition of KDM5A in human PC9 cells assessed as increase in H3K4me3 level after 5 days by mass-spectrometric method. The format is cell-based.
In series [2] the target is Lysine-specific demethylase 3B (Homo sapiens, UniProt Q7LBC6). Put plainly: Inhibition of recombinant human N-terminal FLAG-tagged KDM3B expressed in baculovirus infected Sf9 insect cells using H3K9me1 peptide as substrate after 30 to 45 mins by TR-FRET assay.
The target in series [3] is Lysine-specific histone demethylase 1A (Homo sapiens, UniProt O60341). Put plainly: Inhibition of KDM1A (unknown origin).
The nature of series [4]: Kinetic solubility of the compound. The format is physicochemical. The note with it: read-out: Kinetic_solubility.
Series [5] addresses Histone lysine demethylase PHF8 (Homo sapiens, UniProt Q9UPP1). The series can be described thus: Inhibition of recombinant human N-terminal FLAG-tagged KDM7B expressed in baculovirus infected Sf9 insect cells using H3K9me1 peptide as substrate after 30 to 45 mins by TR-FRET assay.
The target of series [6] is T2, Lysine-specific demethylase 2B (Homo sapiens, UniProt Q8NHM5).
T2 sequence (Q8NHM5 whole entry): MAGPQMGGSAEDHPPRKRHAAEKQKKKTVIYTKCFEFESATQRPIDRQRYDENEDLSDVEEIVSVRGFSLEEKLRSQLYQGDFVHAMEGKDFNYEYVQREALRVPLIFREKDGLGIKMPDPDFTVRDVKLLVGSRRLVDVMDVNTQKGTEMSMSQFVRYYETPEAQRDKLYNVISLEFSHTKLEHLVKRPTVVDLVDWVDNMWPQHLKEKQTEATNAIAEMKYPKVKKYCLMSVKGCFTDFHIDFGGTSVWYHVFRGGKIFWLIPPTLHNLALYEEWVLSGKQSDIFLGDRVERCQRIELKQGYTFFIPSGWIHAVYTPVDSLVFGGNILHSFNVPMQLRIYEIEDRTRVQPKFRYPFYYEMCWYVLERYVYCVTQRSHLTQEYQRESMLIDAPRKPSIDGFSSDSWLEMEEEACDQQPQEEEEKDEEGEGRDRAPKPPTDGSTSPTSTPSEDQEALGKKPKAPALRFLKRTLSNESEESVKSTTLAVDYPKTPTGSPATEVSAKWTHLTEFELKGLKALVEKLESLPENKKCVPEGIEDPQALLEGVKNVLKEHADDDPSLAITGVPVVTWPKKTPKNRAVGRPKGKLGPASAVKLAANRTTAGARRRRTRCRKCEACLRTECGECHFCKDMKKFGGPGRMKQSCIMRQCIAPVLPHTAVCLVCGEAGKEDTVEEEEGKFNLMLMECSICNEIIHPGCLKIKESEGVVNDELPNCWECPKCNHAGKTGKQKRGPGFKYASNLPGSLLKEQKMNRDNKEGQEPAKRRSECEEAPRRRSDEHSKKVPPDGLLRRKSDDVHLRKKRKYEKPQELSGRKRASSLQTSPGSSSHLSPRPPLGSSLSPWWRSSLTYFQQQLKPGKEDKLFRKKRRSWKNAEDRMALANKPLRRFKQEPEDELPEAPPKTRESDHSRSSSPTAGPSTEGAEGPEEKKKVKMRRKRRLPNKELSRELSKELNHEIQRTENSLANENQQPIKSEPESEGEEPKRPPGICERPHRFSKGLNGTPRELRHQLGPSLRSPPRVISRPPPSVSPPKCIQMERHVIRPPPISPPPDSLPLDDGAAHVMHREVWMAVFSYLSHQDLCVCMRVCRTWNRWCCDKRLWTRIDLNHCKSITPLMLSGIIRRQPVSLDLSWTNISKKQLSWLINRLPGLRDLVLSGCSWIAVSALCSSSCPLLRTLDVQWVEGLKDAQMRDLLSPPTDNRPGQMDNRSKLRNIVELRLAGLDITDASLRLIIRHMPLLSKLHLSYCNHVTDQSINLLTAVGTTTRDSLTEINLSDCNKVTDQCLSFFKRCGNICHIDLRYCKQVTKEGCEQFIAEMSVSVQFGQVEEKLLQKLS
Put plainly: Inhibition of recombinant human N-terminal FLAG-tagged KDM2B expressed in baculovirus infected Sf9 insect cells using H3K36me2 peptide as substrate after 30 to 45 mins by TR-FRET assay.

Series [7] concerns the target T3, Lysine-specific demethylase 4C (Homo sapiens, UniProt Q9H3R0).
T3 sequence (Q9H3R0 whole entry): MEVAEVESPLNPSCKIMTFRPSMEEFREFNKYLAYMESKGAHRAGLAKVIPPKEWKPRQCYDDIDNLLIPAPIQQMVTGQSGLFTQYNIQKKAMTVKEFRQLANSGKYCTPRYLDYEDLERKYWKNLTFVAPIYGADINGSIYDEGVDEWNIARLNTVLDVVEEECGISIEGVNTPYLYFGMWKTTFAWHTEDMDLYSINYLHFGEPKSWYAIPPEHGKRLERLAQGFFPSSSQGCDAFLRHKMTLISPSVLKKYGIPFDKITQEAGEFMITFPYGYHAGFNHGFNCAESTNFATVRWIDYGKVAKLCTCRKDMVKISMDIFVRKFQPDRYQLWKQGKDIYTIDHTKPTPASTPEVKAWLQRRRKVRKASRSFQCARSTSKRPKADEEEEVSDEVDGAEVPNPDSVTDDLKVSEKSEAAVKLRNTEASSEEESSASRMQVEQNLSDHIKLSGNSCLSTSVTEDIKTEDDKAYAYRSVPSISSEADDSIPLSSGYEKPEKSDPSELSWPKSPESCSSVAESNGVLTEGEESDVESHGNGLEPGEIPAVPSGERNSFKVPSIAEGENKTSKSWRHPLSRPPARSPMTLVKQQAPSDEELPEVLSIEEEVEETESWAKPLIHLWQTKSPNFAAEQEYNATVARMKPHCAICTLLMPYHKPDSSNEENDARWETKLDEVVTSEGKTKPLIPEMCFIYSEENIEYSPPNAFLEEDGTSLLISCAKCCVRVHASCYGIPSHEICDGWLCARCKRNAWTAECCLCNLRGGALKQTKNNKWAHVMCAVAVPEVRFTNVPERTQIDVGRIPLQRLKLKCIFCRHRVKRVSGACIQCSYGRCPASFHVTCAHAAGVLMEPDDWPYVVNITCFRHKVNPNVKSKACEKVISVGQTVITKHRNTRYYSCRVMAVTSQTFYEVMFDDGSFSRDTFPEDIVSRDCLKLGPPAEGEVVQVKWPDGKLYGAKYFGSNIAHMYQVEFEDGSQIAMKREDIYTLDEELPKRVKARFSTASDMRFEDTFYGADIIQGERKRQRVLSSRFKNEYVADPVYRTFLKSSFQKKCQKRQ
Put plainly: Inhibition of recombinant human N-terminal FLAG-tagged KDM4C expressed in baculovirus infected Sf9 insect cells using H3K9me3 peptide as substrate after 30 to 45 mins by TR-FRET assay.

For series [8], the target named is T1, Lysine-specific demethylase 5A. Put plainly: Inhibition of recombinant human N-terminal FLAG-tagged KDM5A expressed in baculovirus infected Sf9 insect cells using H3K4me3 peptide as substrate after 30 to 45 mins by TR-FRET assay.
For series [9], the target named is Lysine-specific demethylase 6A (Homo sapiens, UniProt O15550). Put plainly: Inhibition of recombinant human N-terminal FLAG-tagged KDM6A expressed in baculovirus infected Sf9 insect cells using H3K27me3 peptide as substrate after 30 to 45 mins by TR-FRET assay.
The nature of series [10]: Lipophilicity, log D of the compound at pH 7.4. Particulars: buffer. The format is physicochemical.
A short description of series [11]: Protein binding in mouse plasma. It is filed as ADME, cell-free. The note with it: read-out: PPB (converted).
Series [12] in a line: Clearance in CD-1 mouse plasma at 1 mg/kg, iv or 5 mg/kg, po. It is filed as ADME, organism-based.
Series [13] can be described thus: Hepatic clearance in rat liver microsomes. The format is ADME, microsome.
Series [14] can be described thus: Hepatic clearance in mouse liver microsomes. The format is ADME, microsome.
Series [15] can be described thus: Protein binding in human plasma. Particulars: read-out: PPB (converted). The format is ADME, cell-free.
A short description of series [16]: Protein binding in rat plasma. It is filed as ADME, cell-free. Particulars: read-out: PPB (converted).
The nature of series [17]: Hepatic clearance in human liver microsomes. The format is ADME, microsome.
A short description of series [18]: Hepatic clearance in rat hepatocytes. The format is ADME, cell-based, Hepatocyte.
A short description of series [19]: Volume of distribution in CD-1 mouse plasma at 1 mg/kg, iv or 5 mg/kg, po. It is filed as ADME, organism-based.
Series [20] is described as follows: Oral bioavailability in CD-1 mouse at 5 mg/kg. The format is ADME, organism-based. The note with it: in vivo.
A short description of series [21]: Hepatic clearance in human hepatocytes. The format is ADME, cell-based, Hepatocyte.
The nature of series [22]: Hepatic clearance in mouse hepatocytes. The format is ADME, cell-based, Hepatocyte.
Series [23] can be described thus: Half-life in CD-1 mouse plasma at 1 mg/kg, iv or 5 mg/kg, po. It is filed as ADME, organism-based.

T1 sequence (P29375 whole entry): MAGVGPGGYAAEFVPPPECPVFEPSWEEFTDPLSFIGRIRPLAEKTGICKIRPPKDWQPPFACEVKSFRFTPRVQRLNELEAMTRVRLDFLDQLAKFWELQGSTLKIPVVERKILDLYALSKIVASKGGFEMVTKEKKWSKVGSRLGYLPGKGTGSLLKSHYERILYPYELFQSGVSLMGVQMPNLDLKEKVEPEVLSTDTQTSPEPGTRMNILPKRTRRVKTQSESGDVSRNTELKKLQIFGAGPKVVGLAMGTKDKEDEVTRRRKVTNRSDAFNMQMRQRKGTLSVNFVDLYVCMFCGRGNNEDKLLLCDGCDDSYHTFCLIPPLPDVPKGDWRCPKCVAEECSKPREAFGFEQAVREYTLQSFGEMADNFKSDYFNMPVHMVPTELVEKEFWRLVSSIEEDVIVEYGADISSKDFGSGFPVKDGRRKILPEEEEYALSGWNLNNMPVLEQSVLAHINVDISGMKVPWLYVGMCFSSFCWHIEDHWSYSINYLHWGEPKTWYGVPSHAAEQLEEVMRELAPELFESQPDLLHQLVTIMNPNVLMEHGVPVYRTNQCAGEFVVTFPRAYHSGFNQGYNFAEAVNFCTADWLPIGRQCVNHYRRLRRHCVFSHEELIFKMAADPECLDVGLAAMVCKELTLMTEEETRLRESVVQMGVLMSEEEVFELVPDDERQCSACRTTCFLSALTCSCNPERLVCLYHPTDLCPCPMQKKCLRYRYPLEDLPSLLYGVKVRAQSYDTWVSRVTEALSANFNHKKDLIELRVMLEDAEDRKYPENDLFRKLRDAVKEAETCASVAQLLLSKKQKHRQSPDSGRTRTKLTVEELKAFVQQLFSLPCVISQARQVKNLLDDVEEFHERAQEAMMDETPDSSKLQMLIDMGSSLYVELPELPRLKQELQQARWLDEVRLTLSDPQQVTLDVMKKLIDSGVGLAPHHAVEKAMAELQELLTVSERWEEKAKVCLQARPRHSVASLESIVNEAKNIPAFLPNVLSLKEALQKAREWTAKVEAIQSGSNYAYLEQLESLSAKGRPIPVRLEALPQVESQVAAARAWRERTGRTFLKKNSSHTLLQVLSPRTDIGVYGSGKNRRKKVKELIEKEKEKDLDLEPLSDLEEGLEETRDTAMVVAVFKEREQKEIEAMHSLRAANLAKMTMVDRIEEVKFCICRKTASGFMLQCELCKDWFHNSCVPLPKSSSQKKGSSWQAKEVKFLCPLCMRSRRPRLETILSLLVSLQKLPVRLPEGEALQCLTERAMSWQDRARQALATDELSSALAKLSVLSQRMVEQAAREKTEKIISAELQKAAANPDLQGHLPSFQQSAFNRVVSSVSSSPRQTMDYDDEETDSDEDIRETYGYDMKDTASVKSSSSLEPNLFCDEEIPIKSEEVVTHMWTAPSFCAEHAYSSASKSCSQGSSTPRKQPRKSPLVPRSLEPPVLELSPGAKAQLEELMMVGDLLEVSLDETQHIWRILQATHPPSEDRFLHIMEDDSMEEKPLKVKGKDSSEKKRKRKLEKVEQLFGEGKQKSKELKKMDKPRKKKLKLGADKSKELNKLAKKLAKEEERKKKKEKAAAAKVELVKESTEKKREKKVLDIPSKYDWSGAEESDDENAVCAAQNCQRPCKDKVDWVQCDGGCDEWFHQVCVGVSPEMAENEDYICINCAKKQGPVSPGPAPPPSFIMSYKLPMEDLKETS
Sequence of Lysine-specific demethylase 3B (Q7LBC6 whole entry): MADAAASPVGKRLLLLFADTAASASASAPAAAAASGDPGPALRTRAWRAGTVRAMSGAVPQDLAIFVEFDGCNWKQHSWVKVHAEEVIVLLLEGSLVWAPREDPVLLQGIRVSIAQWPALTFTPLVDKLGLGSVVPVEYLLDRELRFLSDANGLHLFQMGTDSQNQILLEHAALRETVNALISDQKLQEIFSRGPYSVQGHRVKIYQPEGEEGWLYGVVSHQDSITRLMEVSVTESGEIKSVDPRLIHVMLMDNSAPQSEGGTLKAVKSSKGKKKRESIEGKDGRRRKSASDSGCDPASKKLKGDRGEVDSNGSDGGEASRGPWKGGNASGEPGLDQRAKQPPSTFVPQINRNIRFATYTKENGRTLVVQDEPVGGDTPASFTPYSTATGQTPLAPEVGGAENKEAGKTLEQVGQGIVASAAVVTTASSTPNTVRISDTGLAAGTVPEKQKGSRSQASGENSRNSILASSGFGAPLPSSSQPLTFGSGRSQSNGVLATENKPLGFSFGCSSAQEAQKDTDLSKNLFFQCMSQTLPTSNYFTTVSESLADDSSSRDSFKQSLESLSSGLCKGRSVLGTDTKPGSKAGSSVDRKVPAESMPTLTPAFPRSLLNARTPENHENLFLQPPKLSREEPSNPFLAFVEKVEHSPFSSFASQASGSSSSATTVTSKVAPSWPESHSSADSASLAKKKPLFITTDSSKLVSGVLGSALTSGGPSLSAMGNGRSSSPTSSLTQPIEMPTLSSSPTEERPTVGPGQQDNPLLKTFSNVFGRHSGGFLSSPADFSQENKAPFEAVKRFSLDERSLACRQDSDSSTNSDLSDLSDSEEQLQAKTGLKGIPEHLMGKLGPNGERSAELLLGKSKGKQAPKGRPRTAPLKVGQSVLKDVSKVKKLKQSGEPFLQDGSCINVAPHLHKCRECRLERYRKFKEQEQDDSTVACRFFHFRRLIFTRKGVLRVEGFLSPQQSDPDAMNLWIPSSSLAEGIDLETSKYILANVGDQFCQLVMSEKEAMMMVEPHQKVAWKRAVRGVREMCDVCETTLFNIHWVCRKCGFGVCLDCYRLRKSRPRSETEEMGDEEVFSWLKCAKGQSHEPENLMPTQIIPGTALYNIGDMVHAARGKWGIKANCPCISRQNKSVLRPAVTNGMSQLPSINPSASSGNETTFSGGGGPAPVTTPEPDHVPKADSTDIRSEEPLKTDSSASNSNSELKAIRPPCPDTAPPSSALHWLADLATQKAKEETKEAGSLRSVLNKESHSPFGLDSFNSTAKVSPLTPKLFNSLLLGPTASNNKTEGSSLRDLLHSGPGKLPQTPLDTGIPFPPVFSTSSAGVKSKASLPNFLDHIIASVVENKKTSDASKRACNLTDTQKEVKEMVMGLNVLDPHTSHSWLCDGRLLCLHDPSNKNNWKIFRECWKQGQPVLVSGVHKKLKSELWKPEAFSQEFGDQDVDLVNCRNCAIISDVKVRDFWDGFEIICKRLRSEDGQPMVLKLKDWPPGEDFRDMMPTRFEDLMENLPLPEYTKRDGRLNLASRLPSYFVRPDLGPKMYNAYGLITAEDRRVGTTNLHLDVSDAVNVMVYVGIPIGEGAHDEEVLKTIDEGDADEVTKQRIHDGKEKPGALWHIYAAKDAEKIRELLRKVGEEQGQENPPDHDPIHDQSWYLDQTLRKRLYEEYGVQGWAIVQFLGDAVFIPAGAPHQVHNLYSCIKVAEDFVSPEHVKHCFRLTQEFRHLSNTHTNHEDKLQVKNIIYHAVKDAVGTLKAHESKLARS
Sequence of Histone lysine demethylase PHF8 (Q9UPP1 whole entry): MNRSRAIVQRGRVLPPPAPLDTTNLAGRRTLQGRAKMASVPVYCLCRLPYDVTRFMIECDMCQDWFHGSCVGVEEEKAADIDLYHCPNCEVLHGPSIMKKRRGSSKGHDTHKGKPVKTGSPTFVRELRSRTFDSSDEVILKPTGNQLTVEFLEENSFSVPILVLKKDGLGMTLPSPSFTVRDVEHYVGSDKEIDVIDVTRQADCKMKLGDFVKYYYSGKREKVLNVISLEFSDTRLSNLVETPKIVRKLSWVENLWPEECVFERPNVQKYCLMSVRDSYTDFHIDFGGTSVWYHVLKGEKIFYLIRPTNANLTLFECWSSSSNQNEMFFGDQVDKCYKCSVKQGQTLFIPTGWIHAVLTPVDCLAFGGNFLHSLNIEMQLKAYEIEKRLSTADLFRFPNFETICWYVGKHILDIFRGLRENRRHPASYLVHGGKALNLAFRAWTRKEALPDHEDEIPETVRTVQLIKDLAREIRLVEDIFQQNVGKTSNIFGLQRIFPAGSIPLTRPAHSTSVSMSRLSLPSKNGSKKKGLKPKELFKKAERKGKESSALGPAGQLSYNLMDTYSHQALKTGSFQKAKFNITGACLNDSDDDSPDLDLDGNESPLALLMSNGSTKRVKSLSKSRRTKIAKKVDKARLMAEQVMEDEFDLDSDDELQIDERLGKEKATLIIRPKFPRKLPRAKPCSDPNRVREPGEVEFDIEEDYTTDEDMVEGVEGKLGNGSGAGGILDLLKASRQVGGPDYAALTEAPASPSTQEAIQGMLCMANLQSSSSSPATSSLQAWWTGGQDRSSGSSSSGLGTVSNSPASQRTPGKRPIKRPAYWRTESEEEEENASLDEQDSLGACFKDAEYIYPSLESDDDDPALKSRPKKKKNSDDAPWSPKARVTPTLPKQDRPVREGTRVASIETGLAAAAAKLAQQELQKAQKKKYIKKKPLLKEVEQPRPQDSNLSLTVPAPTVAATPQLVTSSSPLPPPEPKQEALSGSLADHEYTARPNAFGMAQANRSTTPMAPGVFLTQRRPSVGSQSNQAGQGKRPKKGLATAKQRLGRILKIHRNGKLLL

Consider `Cc1cc(-c2cnn(C)c2)cc(C2CCN(C(=O)c3cc(C(C)C)n[nH]3)C2)n1` (racemic), for which, in [1] (read-out: EC50), the EC50 was greater than 30 µM. The half-maximal inhibitory concentration (IC50) in series [2] is greater than 25 µM; in series [3] it was greater than 25 µM; in series [5], greater than 25 µM; in series [6] it was greater than 25 µM; in series [7], greater than 25 µM; in series [8], 0.26 µM. The IC50 in series [9] is greater than 25 µM. Also, the solubility kinetic in [4] was 56 µM (≈ 21.2 µg/mL). Also, the logD in series [10] is 2.8.

For `Cc1cc(-c2cnn(C)c2)cc(C2CCN(C(=O)c3cc(C(C)C)n[nH]3)C2)n1` (stereo in doubt; 9), the fraction unbound in [11] is 0.043; in [15], 0.045; in [16] it was 0.027. Moreover, the EC50 in series [1] was greater than 30 µM. For the same molecule, the clearance in [12] is 99.9 mL/min/kg. The CLhep predicted in series [13] was 37 mL/min/kg; in [14], 69 mL/min/kg; in series [17], 7 mL/min/kg; in [18], 39 mL/min/kg; in series [21], 12 mL/min/kg; in [22], 66 mL/min/kg. For the same molecule, the IC50 was found to be 13.3 µM in [7] and 0.16 µM in [8]. In [19], this molecule showed a Vd of 2.1 L/kg. This molecule also displayed a bioavailability in [20] of 94%. In addition, the half-life in [23] is 18 min.
